# Measured values published in US20200270265A1, “TETRACYCLIC PYRIDONE COMPOUNDS AS ANTIVIRALS” (Novartis AG, priority 2016, published 2020).
# Experiments:
# Assay type in all cases: in vivo
# [1] = Pharmacokinetics in mice (iv and PO); conditions: iv 1.0 mg/kg, PO 2.0 mg/kg
# [2] = Pharmacokinetics in dog (iv and PO); conditions: iv 0.5 mg/kg, PO 1.0 mg/kg
# [3] = Pharmacokinetics in rat (iv and PO); conditions: iv 1.0 mg/kg, PO 2.0 mg/kg
Oral BA [1],T1/2term [1],Oral BA [2],T1/2term [2],Oral BA [3],T1/2term [3],SMILES
59 % F,1.6 h,93 % F,5.9 h,97 % F,2.4 h,"COCCCOc1cc2c(cc1OC)-c1cc(=O)c(C(=O)O)cn1[C@H]1[C@@H]2CCC1(C)C [Compound 1.1, (3aS,12bR)-10-methoxy-11-(3-methoxypropoxy)-3,3-dimethyl-7-oxo-1,2,3,3a,7,12b-hexahydrocyclopenta[c]pyrido[2,1-a]isoquinoline-6-carboxylic acid]"
87 % F,3.8 h,96 % F,7.2 h,57 % F,9.2 h,"COCCCOc1cc2c(cc1OC)-c1c(F)c(=O)c(C(=O)O)cn1[C@H]1[C@@H]2CCC1(C)C [Compound 3.1, (3aS,12bR)-8-fluoro-10-methoxy-11-(3-methoxypropoxy)-3,3-dimethyl-7-oxo-1,2,3,3a,7,12b-hexahydrocyclopenta[c]pyrido[2,1-a]isoquinoline-6-carboxylic acid]"
100 % F,1.8 h,94 % F,,65 % F,1.2 h,"COCCCOc1cc2c(cc1OC)-c1cc(=O)c(C(=O)O)cn1[C@H]1[C@@H]2OCC1(C)C [Compound 4.1, (3aR,12bR)-10-methoxy-11-(3-methoxypropoxy)-3,3-dimethyl-7-oxo-3,3a,7,12b-tetrahydro-2H-furo[3,2-c]pyrido[2,1-a]isoquinoline-6-carboxylic acid]"
